Non-standard residues stand in square brackets, D forms with d. Residues, ends and D or L forms follow the SMILES beside them. *: point of attachment. Tos = Cc1ccc(S(=O)(=O)*)cc1; Ms = CS(=O)(=O)*
Experiments:
[1] = target: T1, Calpain-1 catalytic subunit (Homo sapiens, UniProt P07384); experiment: Compound was tested for inhibitory activity against recombinant human Calpain 1
T1 sequence (P07384 whole entry): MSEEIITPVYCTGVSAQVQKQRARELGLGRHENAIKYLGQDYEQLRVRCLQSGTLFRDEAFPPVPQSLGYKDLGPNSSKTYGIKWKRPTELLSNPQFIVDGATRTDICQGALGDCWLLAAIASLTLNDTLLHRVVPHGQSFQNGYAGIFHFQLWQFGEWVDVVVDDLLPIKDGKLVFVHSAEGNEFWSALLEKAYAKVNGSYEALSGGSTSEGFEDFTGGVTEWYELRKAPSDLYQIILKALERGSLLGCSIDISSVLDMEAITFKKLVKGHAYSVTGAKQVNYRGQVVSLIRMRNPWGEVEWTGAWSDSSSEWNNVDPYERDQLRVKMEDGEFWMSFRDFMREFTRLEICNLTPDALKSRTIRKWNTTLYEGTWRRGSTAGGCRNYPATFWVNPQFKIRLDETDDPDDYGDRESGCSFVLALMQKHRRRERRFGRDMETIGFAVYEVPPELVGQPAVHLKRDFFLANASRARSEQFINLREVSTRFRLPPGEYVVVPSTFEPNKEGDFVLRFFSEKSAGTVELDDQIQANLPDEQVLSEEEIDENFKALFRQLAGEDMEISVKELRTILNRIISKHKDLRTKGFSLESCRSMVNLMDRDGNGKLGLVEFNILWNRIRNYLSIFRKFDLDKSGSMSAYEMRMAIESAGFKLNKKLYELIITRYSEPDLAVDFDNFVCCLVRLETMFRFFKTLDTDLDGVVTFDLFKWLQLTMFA

[2] = target: Cathepsin B (Homo sapiens, UniProt P07858); experiment: Compound was tested for inhibitory activity against Cathepsin B.
[3] = target: T2, Calpain-1 catalytic subunit (Homo sapiens) (UniProt P07384); experiment: Compound was tested for inhibitory activity against recombinant human Calpain 1 at concentration of 1 uM
T2 sequence (whole entry): T1 sequence (P07384 whole entry)

[4] = target: Chymotrypsinogen A (Bos taurus) (UniProt P00766); experiment: Compound was tested for inhibitory activity against alpha-chymotrypsin at concentration of 1 uM.
[5] = target: Chymotrypsinogen A (Bos taurus) (UniProt P00766); experiment: Compound was tested for inhibitory activity against alpha-chymotrypsin at concentration of 10 uM.

IC50 [1] | IC50 [2] | SMILES | other results
41 nM | 1400 nM | O=C[C@H](Cc1ccccc1)NC(=O)[C@@H]1CCCN1S(=O)(=O)c1ccccc1 | 
125 nM |  | O=C[C@H](Cc1ccccc1)NC(=O)[C@@H]1C[C@@H](OCc2ccccc2)CN1S(=O)(=O)c1ccccc1 | 
13 nM | 38 nM | O=C[C@H](Cc1ccccc1)NC(=O)[C@@H]1C[C@@H](OS(=O)(=O)c2ccccc2)CN1S(=O)(=O)c1ccccc1 | 
 |  | Cc1ccc(S(=O)(=O)N2C[C@@H](OS(C)(=O)=O)C[C@@H]2C(=O)N[C@H](C=O)Cc2ccccc2)cc1 | inhibition [3]: 79%
 |  | Cc1ccc(S(=O)(=O)O[C@@H]2C[C@H](C(=O)N[C@H](C=O)Cc3ccccc3)N(S(=O)(=O)c3ccccc3)C2)cc1 | inhibition [3]: 48%
 |  | Cc1ccc(S(=O)(=O)O[C@H]2C[C@H](C(=O)N[C@H](C=O)Cc3ccccc3)N(S(=O)(=O)c3ccc(C)cc3)C2)cc1 | inhibition [3]: 74%
 |  | O=C[C@H](Cc1ccccc1)NC(=O)[C@H]1C[C@H](OS(=O)(=O)c2ccccc2)CN1S(=O)(=O)c1ccccc1 | inhibition [4]: 42%
45 nM | 883 nM | CS(=O)(=O)N1CCC[C@H]1C(=O)N[C@H](C=O)Cc1ccccc1 (Ms-Pro-Phe-aldehyde) | 
 | 3000 nM | CS(=O)(=O)N1CCC[C@@H]1C(=O)N[C@H](C=O)Cc1ccccc1 (Ms-[dP]-Phe-aldehyde) | inhibition [5]: 2%
 | 3600 nM | Cc1ccc(S(=O)(=O)N2CCC[C@@H]2C(=O)N[C@H](C=O)Cc2ccccc2)cc1 (Tos-[dP]-Phe-aldehyde) | inhibition [5]: 12%
100 nM |  | Cc1ccc(S(=O)(=O)N2C[C@H](NC(=O)C(F)(F)F)CC2C(=O)N[C@H](C=O)Cc2ccccc2)cc1 (single isomer, unassigned) | 
28 nM | 8700 nM | Cc1ccc(S(=O)(=O)N2C[C@H](C#N)CC2C(=O)N[C@H](C=O)Cc2ccccc2)cc1 (single isomer, unassigned) | inhibition [5]: 6%
 | > 10000 nM | Cc1ccc(S(=O)(=O)N2C[C@H](N=[N+]=[N-])CC2C(=O)N[C@H](C=O)Cc2ccccc2)cc1 (single isomer, unassigned) | inhibition [5]: 9%
 |  | Cc1ccc(S(=O)(=O)N2C[C@H](NS(C)(=O)=O)CC2C(=O)N[C@H](C=O)Cc2ccccc2)cc1 (single isomer, unassigned) | inhibition [3]: 40%
